Tests used:
Type in all cases: cell-based
[1] = system: Wnt activity (Sp5-Luc reporter, SW480 colon carcinoma cells); experiment: Wnt activity screening assay: Sp5-Luc reporter gene assay in SW480 cells; conditions: Homo sapiens; for EC50: SW480 cells, overnight incubation; for inhibition at 10 µM: given where EC50 >10 μM, SW480, read-out: percent inhibition at 10 μM
Method in brief: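 SW480 cells stably carrying Sp5-Luc reporter (eight TCF/LEF sites) plated at 4,000/well in 1% FBS medium with compound (10-point 1:3 series from 10 μM, 0.1% DMSO) overnight at 37 °C. BrightGlo luminescence normalized to DMSO; EC50 by four-parameter fit, else % inhibition at 10 μM.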

SW480 colon cancer cells = experiment: Cell viability assay (CellTiter-Blue); conditions: Homo sapiens; for EC50: 96 h, SW480 cell viability, four days, CellTiter-Blue; for inhibition at 10 µM: given where EC50 >10 μM, SW480 viability, read-out: percent inhibition at 10 μM
Method in brief: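 SW480 colon cancer cells (~2×10^3/well) exposed to 8-point 1:3 dilutions from 10 μM to 0.0045 μM for four days at 37 °C/5% CO2. Viability read by resazurin (CellTiter-Blue) fluorescence after ~3 h, Ex 560/Em 590 nm. EC50 from non-linear regression; percent inhibition at 10 μM given when EC50 >10 μM.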

IL-6 (THP-1 cells) = experiment: IL-6 inhibition in LPS-stimulated THP-1 cells (HTRF); conditions: Homo sapiens; for EC50: THP-1 cells, LPS 500 ng/mL, 22 hours, IL6 HTRF
Method in brief: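 THP-1 cells, pre-cultured 24 h in 1% FBS, were preincubated 2 h with compound over a 10-point 1:3 series from 10 μM (0.1% DMSO). They were then stimulated with 500 ng/mL LPS for 22 h at 37° C. IL-6 was read by HTRF 665/620 nm ratio, and EC50 was fitted by four-parameter regression against DMSO; above 10 μM, % inhibition at 10 μM is given.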

EC50 [1] [µM] | EC50 (SW480 colon cancer cells) [µM] | EC50 (IL-6 (THP-1 cells)) [µM] | SMILES | inhibition at 10 µM [1] [%] | inhibition at 10 µM (SW480 colon cancer cells) [%] | inhibition at 10 µM (IL-6 (THP-1 cells); at 10 μM, given where EC50 >10 μM, THP-1, IL6, read-out: percent inhibition at 10 μM) [%]
> 10 | > 10 | > 10 | CN1CCN(c2ccnc3[nH]c(-c4n[nH]c5ccc(-c6cn[nH]c6)nc45)cc23)CC1 [Compound 635, 3-(4-(4-Methylpiperazin-1-yl)-1H-pyrrolo[2,3-b]pyridin-2-yl)-5-(1H-pyrazol-4-yl)-1H-pyrazolo[4,3-b]pyridine] | 13.4 | 13.3 | 8.4
2.26 | > 10 | 0.046 | Cn1cc(-c2ccc3[nH]nc(-c4cc5cccnc5[nH]4)c3n2)cn1 [Compound 652, 5-(1-Methyl-1H-pyrazol-4-yl)-3-(1H-pyrrolo[2,3-b]pyridin-2-yl)-1H-pyrazolo[4,3-b]pyridine] |  | 29.2 | 
> 10 | > 10 | 3.34 | O=C(CC1CCNCC1)Nc1cncc(-c2ccc3[nH]nc(-c4cc5c(-c6ccoc6)ccnc5[nH]4)c3n2)c1 [Compound 689, N-(5-(3-(4-(Furan-3-yl)-1H-pyrrolo[2,3-b]pyridin-2-yl)-1H-pyrazolo[4,3-b]pyridin-5-yl)pyridin-3-yl)-2-(piperidin-4-yl)acetamide] | 10.9 | 9.2 | 
3.64 | > 10 | 0.303 | c1csc(-c2ccnc3[nH]c(-c4n[nH]c5ccc(-c6cncc(OC7CCCCC7)c6)nc45)cc23)c1 [Compound 703, 5-(5-(Cyclohexyloxy)pyridin-3-yl)-3-(4-(thiophen-2-yl)-1H-pyrrolo[2,3-b]pyridin-2-yl)-1H-pyrazolo[4,3-b]pyridine] |  | 52.9 | 
3.71 | > 10 | 0.106 | c1csc(-c2ccnc3[nH]c(-c4n[nH]c5ccc(-c6cncc(OC7CCNCC7)c6)nc45)cc23)c1 [Compound 704, 5-(5-(Piperidin-4-yloxy)pyridin-3-yl)-3-(4-(thiophen-2-yl)-1H-pyrrolo[2,3-b]pyridin-2-yl)-1H-pyrazolo[4,3-b]pyridine] |  | 49.5 | 
